Experiments:
Format in all cases: biochemical
Abl = biological target: T1, Abl (Homo sapiens, UniProt P00519); test: AlphaScreen kinase assay, Abl; details: read-out: activity toward kinase Abl, IC50
T1 construct: P1121. pET-SPEC BI-PTP Abl G227-V515-X; His6 (N); made in house; host or cells: E. coli (PTP1B co-expressed)
T1 sequence (P00519 with tags, fused parts or gaps): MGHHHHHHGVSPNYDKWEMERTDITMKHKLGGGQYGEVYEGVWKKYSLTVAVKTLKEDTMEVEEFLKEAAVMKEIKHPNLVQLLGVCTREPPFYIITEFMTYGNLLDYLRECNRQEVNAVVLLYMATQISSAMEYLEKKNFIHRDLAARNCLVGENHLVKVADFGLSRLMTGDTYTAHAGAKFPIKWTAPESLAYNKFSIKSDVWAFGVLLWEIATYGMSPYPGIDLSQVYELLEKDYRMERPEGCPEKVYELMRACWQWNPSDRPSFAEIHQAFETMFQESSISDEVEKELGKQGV
In short: (§1)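 Stock 20 mM compound in DMSO, diluted 1:3 serially to 8 final concentrations. Kinase phosphorylates biotinylated peptide; donor (streptavidin) and acceptor (anti-phospho antibody) beads then associate. Reduced acceptor emission indicates inhibition.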

B-Raf = biological target: T2, B-Raf (Homo sapiens, UniProt P15056); test: AlphaScreen kinase assay, B-Raf; details: read-out: IC50, activity toward kinase B-Raf
T2 construct: purchased Upstate Biotechnology
T2 sequence (P15056 whole entry): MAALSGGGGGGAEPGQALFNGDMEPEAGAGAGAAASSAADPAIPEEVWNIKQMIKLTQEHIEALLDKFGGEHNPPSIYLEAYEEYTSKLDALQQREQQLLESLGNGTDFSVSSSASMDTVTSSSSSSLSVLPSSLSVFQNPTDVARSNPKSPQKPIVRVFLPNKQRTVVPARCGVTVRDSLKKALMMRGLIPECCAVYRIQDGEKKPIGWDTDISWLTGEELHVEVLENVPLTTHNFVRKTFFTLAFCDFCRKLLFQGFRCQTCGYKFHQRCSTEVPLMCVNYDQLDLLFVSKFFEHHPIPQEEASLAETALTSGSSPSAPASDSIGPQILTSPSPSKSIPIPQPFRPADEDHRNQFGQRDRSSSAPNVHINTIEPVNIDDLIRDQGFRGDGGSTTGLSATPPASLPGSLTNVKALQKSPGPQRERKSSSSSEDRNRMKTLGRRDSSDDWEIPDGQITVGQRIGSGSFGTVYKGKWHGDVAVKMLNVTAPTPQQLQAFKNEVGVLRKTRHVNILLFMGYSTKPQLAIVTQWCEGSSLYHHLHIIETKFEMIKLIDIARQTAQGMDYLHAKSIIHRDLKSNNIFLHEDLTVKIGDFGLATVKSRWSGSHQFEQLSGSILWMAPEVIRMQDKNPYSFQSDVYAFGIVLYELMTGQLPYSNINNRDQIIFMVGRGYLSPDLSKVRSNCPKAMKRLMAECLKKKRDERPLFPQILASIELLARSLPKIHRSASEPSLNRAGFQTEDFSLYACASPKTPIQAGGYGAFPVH

B-Raf V600E = biological target: T3, B-Raf V600E (Homo sapiens, UniProt P15056, V600E); test: AlphaScreen kinase assay, B-Raf V600E; details: read-out: IC50, activity toward kinase B-Raf V600E
T3 construct: P4254. pFastBacBD-CDC37 BRAF D437-K722-X, V600E; His6 with pFastBac HT leader (TEV site) (N); made in house; host or cells: Sf9 (baculovirus; chaperone CDC37 co-expressed)
T3 sequence (P15056 with tags, fused parts or gaps V600E): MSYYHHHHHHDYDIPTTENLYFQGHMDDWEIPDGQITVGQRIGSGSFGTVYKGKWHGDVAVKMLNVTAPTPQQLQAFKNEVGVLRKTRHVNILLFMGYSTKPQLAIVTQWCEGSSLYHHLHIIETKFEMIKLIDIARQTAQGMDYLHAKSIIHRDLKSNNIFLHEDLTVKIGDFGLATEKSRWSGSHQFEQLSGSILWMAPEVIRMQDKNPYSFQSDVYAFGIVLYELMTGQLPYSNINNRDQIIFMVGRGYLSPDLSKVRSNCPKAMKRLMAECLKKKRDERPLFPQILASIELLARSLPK

Btk = biological target: T4, Btk (Homo sapiens, UniProt Q06187); test: Z'-Lyte FRET kinase assay (Invitrogen), Btk; details: read-out: IC50, activity toward kinase Btk
T4 construct: purchased Invitrogen (assay run by Invitrogen)
T4 sequence (Q06187 whole entry): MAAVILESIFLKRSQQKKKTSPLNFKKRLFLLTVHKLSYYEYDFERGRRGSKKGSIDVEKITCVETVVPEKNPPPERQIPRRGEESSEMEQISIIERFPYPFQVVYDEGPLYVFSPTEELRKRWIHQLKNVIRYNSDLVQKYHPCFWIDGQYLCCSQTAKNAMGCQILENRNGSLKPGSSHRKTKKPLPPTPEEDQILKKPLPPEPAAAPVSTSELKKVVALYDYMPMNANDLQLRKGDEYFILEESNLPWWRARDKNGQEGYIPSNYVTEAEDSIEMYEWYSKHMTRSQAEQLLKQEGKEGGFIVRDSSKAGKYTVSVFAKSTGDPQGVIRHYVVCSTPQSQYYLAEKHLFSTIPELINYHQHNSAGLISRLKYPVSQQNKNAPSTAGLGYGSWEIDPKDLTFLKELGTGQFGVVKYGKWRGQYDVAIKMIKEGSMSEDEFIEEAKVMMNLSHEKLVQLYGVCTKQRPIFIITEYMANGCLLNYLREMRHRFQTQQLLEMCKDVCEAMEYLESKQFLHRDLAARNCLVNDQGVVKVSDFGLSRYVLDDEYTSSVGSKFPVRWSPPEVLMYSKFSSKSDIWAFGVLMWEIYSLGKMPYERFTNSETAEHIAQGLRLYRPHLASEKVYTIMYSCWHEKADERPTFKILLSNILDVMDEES

Fak = biological target: T5, Fak (Homo sapiens, UniProt Q05397); test: AlphaScreen kinase assay, Fak; details: read-out: IC50, activity toward kinase Fak
T5 construct: P1358.pFastBacHtb FAK S411-Q686-X; His6 with pFastBacHTb leader (TEV site) (N); made in house; host or cells: Sf9 (baculovirus)

FGFR1 = biological target: T6, FGFR1 (Homo sapiens, UniProt P11362, C488A/C584S); test: AlphaScreen kinase assay, FGFR1; details: read-out: IC50, activity toward kinase FGFR
T6 construct: P1351.pET N6 BI-PTP FGFR A458-E765-X C488A, C584S; made in house; host or cells: E. coli (PTP1B co-expressed)
T6 sequence (P11362 458-765 C488A/C584S): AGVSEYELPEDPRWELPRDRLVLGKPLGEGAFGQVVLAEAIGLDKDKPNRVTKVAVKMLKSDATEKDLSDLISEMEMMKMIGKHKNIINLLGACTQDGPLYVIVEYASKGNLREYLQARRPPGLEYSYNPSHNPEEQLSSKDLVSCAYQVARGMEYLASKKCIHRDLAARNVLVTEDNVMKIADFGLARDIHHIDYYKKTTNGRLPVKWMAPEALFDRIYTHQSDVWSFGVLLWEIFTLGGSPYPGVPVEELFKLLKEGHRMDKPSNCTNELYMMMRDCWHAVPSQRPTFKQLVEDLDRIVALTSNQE

Flt1 = biological target: T7, Flt1 (Homo sapiens, UniProt P17948); test: AlphaScreen kinase assay, Flt1; details: read-out: IC50, activity toward kinase Flt1
T7 construct: P1826.pETN6 BI-PTP FLT1 M799-D1165-X WT; His6 (N); made in house; host or cells: E. coli (PTP1B co-expressed)
T7 sequence (P17948 with tags, fused parts or gaps): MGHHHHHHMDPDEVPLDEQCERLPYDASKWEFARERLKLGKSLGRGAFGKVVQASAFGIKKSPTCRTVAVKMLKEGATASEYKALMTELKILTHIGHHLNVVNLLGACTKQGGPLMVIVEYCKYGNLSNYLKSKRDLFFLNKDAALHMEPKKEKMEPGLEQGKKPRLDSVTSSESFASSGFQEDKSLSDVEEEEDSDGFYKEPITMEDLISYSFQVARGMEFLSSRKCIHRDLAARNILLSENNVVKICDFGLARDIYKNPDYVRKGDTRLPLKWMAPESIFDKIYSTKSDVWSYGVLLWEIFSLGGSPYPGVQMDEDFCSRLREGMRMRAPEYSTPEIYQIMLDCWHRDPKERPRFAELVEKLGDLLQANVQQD

Fms = biological target: T8, Fms (Homo sapiens, UniProt P07333); test: AlphaScreen kinase assay, Fms; details: read-out: IC50, activity toward kinase Fms
T8 construct: purchased Upstate Biotechnology
T8 sequence (P07333 20-972): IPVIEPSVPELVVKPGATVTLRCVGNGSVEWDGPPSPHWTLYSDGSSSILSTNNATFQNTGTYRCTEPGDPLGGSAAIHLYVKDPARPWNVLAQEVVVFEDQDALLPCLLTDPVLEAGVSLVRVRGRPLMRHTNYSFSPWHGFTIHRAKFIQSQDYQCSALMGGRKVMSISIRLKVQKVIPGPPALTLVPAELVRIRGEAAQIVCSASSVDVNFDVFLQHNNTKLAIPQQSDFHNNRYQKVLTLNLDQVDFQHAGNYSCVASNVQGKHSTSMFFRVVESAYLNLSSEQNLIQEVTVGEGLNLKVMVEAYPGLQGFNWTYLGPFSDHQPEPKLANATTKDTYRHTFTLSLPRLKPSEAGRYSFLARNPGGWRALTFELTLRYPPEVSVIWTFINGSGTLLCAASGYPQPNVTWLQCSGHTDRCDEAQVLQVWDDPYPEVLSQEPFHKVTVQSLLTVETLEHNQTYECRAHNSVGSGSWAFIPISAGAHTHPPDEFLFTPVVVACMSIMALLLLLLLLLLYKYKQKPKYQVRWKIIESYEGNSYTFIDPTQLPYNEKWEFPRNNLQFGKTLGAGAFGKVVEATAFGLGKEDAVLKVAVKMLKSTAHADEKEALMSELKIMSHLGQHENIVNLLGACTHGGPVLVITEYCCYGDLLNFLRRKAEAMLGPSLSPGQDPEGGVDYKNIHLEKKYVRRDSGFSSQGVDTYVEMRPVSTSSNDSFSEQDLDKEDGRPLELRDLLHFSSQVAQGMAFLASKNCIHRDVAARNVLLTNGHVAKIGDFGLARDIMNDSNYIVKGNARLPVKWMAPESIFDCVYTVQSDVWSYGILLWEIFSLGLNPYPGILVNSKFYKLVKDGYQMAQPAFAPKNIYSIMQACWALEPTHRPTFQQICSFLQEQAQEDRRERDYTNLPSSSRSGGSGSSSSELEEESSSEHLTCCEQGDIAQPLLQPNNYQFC

Jnk1 = biological target: T9, Jnk1 (Homo sapiens, UniProt P45983); test: AlphaScreen kinase assay, Jnk1; details: read-out: IC50, activity toward kinase Jnk1
T9 construct: purchased Upstate Biotechnology

Jnk2 = biological target: T10, Jnk2 (Homo sapiens, UniProt P45984); test: AlphaScreen kinase assay, Jnk2; details: read-out: IC50, activity toward kinase Jnk2
T10 construct: purchased Roche Protein Expression Group (Indianapolis, IN)
In short: as §1

Jnk3 = biological target: T11, Jnk3 (Homo sapiens, UniProt P53779); test: AlphaScreen kinase assay, Jnk3; details: read-out: IC50, activity toward kinase Jnk3
T11 construct: purchased Upstate Biotechnology
T11 sequence (P53779 whole entry): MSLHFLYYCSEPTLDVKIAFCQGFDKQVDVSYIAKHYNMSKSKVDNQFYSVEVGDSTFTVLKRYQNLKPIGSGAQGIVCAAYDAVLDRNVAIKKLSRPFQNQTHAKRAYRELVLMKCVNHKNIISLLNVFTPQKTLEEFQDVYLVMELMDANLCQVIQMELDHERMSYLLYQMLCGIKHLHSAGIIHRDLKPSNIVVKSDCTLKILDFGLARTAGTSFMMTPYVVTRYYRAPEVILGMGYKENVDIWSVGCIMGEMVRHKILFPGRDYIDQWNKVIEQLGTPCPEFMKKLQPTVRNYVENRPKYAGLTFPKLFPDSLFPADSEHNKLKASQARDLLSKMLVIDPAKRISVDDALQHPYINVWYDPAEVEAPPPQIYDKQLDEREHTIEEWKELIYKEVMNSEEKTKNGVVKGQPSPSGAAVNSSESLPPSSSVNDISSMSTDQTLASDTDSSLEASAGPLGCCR

Kdr = biological target: T12, Kdr (Homo sapiens, UniProt P35968); test: Z'-Lyte FRET kinase assay (Invitrogen), Kdr; details: read-out: IC50, activity toward kinase Kdr
T12 construct: purchased Invitrogen (assay run by Invitrogen)
T12 sequence (P35968 20-1356): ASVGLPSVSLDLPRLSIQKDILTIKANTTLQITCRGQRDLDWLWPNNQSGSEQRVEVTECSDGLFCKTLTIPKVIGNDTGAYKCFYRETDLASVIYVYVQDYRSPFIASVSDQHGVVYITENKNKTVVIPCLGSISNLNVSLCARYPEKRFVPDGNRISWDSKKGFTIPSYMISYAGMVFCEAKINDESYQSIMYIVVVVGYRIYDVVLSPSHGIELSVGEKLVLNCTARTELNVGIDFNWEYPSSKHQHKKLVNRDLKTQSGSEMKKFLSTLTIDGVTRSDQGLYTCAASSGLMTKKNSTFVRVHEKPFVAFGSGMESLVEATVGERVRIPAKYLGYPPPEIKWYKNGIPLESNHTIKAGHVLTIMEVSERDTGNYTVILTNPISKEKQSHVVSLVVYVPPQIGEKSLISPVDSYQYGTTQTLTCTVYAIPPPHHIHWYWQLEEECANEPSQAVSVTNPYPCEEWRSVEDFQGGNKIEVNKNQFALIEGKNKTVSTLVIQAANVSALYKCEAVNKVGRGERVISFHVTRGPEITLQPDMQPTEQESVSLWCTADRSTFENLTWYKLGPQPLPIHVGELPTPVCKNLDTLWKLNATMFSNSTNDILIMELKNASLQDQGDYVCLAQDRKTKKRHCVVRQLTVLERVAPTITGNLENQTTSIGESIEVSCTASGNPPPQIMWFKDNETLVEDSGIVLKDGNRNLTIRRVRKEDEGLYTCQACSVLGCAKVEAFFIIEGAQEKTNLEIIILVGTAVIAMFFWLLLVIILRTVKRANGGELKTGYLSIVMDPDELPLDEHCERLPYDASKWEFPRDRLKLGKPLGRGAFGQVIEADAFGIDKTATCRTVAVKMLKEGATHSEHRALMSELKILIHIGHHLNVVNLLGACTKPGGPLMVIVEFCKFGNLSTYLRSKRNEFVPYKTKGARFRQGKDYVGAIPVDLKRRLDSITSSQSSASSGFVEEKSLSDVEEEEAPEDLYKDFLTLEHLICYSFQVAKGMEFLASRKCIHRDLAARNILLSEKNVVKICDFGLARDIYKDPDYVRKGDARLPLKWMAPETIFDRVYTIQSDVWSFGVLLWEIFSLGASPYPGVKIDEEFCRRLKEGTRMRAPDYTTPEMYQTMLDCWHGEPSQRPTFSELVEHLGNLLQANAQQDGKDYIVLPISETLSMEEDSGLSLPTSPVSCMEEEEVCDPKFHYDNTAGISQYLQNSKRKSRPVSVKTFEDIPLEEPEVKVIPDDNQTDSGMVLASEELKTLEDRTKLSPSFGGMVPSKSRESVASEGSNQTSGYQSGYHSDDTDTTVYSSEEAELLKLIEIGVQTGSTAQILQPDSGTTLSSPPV

Kit = biological target: T13, Kit (Homo sapiens, UniProt P10721); test: AlphaScreen kinase assay, Kit; details: read-out: IC50, activity toward kinase Kit
T13 construct: P1332.N6 BI PTP KIT M552-K948-X COD; His6 (N); made in house; host or cells: E. coli (PTP1B co-expressed)

Met = biological target: T14, Met (Homo sapiens, UniProt P08581); test: AlphaScreen kinase assay, Met; details: read-out: IC50, activity toward kinase Met
T14 construct: P1818.pETN6 BI-PTP MET G1056-G1364-X WT; His6 (N); made in house; host or cells: E. coli (PTP1B co-expressed)
In short: as §1

Ret = biological target: T15, Ret (Homo sapiens, UniProt P07949); test: AlphaScreen kinase assay, Ret; details: read-out: IC50, activity toward kinase Ret
T15 construct: P1378.pET-SF BI-PTP RET H661-R1012 HIS; made in house
T15 sequence (P07949 with tags, fused parts or gaps): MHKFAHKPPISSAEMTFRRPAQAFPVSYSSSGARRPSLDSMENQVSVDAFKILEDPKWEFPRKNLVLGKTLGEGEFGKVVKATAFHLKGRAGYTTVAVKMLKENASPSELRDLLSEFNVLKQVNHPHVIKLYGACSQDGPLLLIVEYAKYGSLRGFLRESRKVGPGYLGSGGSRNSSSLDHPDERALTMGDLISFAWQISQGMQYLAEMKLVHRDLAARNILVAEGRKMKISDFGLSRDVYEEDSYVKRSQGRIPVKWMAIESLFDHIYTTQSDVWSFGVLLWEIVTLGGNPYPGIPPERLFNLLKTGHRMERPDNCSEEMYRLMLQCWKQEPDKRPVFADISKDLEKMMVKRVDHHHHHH

Stk6 = biological target: T16, Stk6 (Homo sapiens, UniProt O14965); test: Z'-Lyte FRET kinase assay (Invitrogen), Stk6; details: read-out: IC50, activity toward kinase Stk6
T16 construct: purchased Invitrogen (Carlsbad, Calif.), screening service
T16 sequence (O14965 1-403): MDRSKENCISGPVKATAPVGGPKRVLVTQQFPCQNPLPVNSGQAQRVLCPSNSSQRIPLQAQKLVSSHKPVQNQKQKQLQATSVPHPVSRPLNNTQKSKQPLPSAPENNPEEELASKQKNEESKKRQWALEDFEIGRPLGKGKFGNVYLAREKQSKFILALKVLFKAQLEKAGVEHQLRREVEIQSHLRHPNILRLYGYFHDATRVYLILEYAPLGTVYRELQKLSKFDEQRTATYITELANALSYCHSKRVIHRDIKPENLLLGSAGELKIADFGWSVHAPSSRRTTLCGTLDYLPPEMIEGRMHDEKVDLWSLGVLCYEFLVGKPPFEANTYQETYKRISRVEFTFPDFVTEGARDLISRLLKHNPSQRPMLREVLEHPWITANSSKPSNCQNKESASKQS

Syk = Syk (Homo sapiens, UniProt P43405); test: AlphaScreen kinase assay, Syk; details: read-out: IC50, activity toward kinase Syk
Text: AlphaScreen assay was used to screen additional kinases. The assay is similarly dependent on the phosphorylation of a peptide substrate. In this assay, an antibody that recognizes phosphorylated substrate is bound to an acceptor bead. The peptide substrate is attached to biotin, which binds to a donor head that contains streptavidin. Thus phosphorylated substrate is bound by antibody and streptavidin, bringing the donor and acceptor heads into close proximity when kinase is not inhibited. The donor produces singlet oxygen which results in emission from the acceptor when they are in close proximity. Conversely, when kinase is inhibited, the donor and acceptor beads are not associated and the emission from the acceptor is reduced.
AlphaScreen assays were done using compounds dissolved in DMSO to a concentration of 20 mM. The compounds were diluted accordingly to the desired final concentrations in each sample well, using 1:3 serial dilution for a total of 8 concentration points.

MAPKAPK2 = biological target: T17, MAPKAPK2 (Homo sapiens, UniProt P49137); test: Z'-Lyte FRET kinase assay (Invitrogen), MAPKAPK2; details: read-out: IC50, activity toward kinase MAPKAPK2
T17 construct: purchased Invitrogen (assay run by Invitrogen)
Text: The effect of potential modulators of kinase activity can be measured in a variety of different assays known in the art. For example, direct radiometric, indirect FRET or AlphaScreen assays may be used to assess the level of phosphorylation of a substrate in the presence of test compounds in order to determine the inhibitory affect of the compound on the kinase. Invitrogen (Carlsbad, Calif.) uses a FRET based assay for Btk, EGFR, EphB2, Flt3, lrak4, Kdr, MAP2K1, MAPKAPK2, PDGFRB, PKC theta, Stk6 and Yes. For these assays, compounds of the invention were screened by Invitrogen using Z′-Lyte™ kinase assay.
Briefly, the Invitrogen kinase assay involves use of a specific peptide substrate optimized for each kinase, containing a fluorophore at each end that make up the FRET pair. The peptide sensitivity to proteolytic cleavage depends on phosphorylation of the peptide. Non-phosphorylated peptide is cleaved by a protease while peptide phosphorylated by the kinase is not cleaved. Cleavage of the peptide disrupts the FRET between the donor (coumarin) and acceptor (fluorescein) fluorophores, resulting in an increase in the ratio of donor emission to acceptor emission. The emission ratio of coumarin to fluorescein is used to assess the reaction progress. The extent of phosphorylation is determined from the emission ratio, which is low when the kinase is active (phosphorylated peptide is not cleaved, FRET pair connected) or higher for inhibited kinase (non-phosphorylated peptide is cleaved, FRET pair separated). Thus, the assay involves a kinase reaction in the presence of varying concentrations of a given compound, a development reaction with site specific protease, and detection of the fluorescent emission ratio of coumarin and fluorscein. […] Reaction conditions for each kinase are determined to provide optimal reaction times, incubation temperature, kinase and ATP concentrations. Test samples are made up in 1× kinase buffer (50 mM HEPES pH 7.5, 50 mM MgCl2, 5 mM EGTA, 0.05% BRIJ-35) and compound at desired concentration prepared in DMSO such that the final DMSO is 1%. […] Typically, assay plates are prepared to 10 μl final volume per sample, adding 2.5 μl of compound at 4× the desired concentration in 4% DMSO (serial dilution of compound provides concentration curve), 5 μl of the desired kinase mixed with Z′-LYTE™ peptide substrate (2× in 2× kinase buffer, final peptide at 2 μM), and 2.5 μl of 4×ATP solution. All kinase except for MAP2K1 were at 10 μM ATP in the kinase reaction, while MAP2K1 was at 100 μM. Samples are mixed and the kinase reaction is incubated 1 hour at room temperature, after which 5 μl of development solution is added and mixed. After incubation for another 1 hour at room temperature, 5 μl of stop reagent is added to each sample and mixed. The fluorescence signals are measured to determine the emission ratio.

Row | IC50 (Abl) [µM] | IC50 (B-Raf) [µM] | IC50 (B-Raf V600E) [µM] | IC50 (Btk) [µM] | IC50 (Fak) [µM] | IC50 (FGFR1) [µM] | IC50 (Flt1) [µM] | IC50 (Fms) [µM] | IC50 (Jnk1) [µM] | IC50 (Jnk2) [µM] | IC50 (Jnk3) [µM] | IC50 (Kdr) [µM] | IC50 (Kit) [µM] | IC50 (Met) [µM] | IC50 (Ret) [µM] | IC50 (Stk6) [µM] | IC50 (Syk) [µM] | IC50 (MAPKAPK2) [µM] | Structure (SMILES)
1 | ≤ 10 | ≤ 10 | ≤ 10 | ≤ 10 | ≤ 10 | ≤ 10 | ≤ 10 | ≤ 10 | ≤ 10 | ≤ 10 | ≤ 10 | ≤ 10 | ≤ 10 | ≤ 10 | ≤ 10 | ≤ 10 | ≤ 10 | – | COc1cccc(C(=O)c2c[nH]c3ncc(-c4cccc(/C=C/C(=O)O)c4)cc23)c1 [Compound P-0054]
2 | – | – | – | – | – | – | – | – | – | – | – | ≤ 10 | – | – | – | ≤ 10 | – | ≤ 10 | Nc1ccc(Sc2c[nH]c3nccc(-c4cccc(CO)c4)c23)cc1 [Compound P-0077]
3 | – | – | ≤ 10 | ≤ 10 | – | ≤ 10 | – | – | – | – | ≤ 10 | ≤ 10 | – | – | ≤ 10 | – | ≤ 10 | – | O=C(O)/C=C/c1cccc(-c2cnc3[nH]cc(C(=O)c4cccc(Cl)c4Cl)c3c2)c1 [Compound P-0089]
